Experimental data reported in PMC6207618, “The GbsR Family of Transcriptional Regulators: Functional Characterization of the OpuAR Repressor” (Frontiers in Microbiology, 2018).
Where two headings read alike, the source gives them in different places.

How the values were obtained:
OpuAR Y^94F/R^100F = OpuAR Y^94F/R^100F (Bacillus infantis, UniProt U5LJR5, R100F/Y94F); test: biochemical; assay type: binding; details: for Improvement of binding (Kd) relative to wild-type OpuAR: OpuAR double variant Y94F/R100F vs wild type
Sequence of OpuAR Y^94F/R^100F (U5LJR5 entry or part of it Y94F/R100F): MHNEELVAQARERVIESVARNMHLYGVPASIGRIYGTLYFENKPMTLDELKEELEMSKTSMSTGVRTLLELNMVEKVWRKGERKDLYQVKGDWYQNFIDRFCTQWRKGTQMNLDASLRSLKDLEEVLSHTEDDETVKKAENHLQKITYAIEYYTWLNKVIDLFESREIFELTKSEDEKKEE
Description: (§1) The coding region of opuAR was amplified from chromosomal DNA of B. infantis NRRL B-14911 ([Massilamany et al., 2016]) using primers opuAR fwd and opuAR rev (Supplementary Table S2) harboring in their 5′-regions recognition sites for the restriction enzyme BsaI. The resulting PCR DNA fragment was then cut with BsaI and cloned into the expression vector pASK-IBA3plus (IBA, Göttingen, Germany) that had been linearized with BsaI; the obtained plasmids were named pMP_AR1 (Supplementary Table S3). Mutant derivatives of the opuAR gene were obtained using the Q5 Site-Directed Mutagenesis Kit (New England BioLabs, Ipswich, MA, United States) and a set of customized mutagenic primers (Supplementary Table S2). The Sanger sequencing method was used to verify the DNA sequence of the chromosomal insert of the parental opuAR^+ overexpression plasmid pMP_AR1 and of its derivatives carrying mutant opuAR genes. DNA sequencing was conducted by Microsynth (Lindau, Germany).
(§2) Overproduction of the OpuAR repressor protein and its mutant derivatives was carried out in the E. coli B strain BL21 harboring plasmid pMP_AR1, a derivative of the expression vector pASK-IBA3plus (IBA, Göttingen, Germany) (Supplementary Table S3). […] De-repression of P-tet promoter activity is achieved by adding the synthetic inducer AHT to the growth medium. Cultures of the E. coli B. strain BL21 (pMP_AR1) were inoculated (to a OD578 of 0.1) from pre-cultures prepared in MMA ([Miller, 1972]) supplemented with 0.5% glucose (wt/vol) as the carbon source, 0.5% casamino acids (wt/vol), 1 mg l^-1 thiamine, and 1 mM MgSO4. The cultures also contained ampicillin (100 μg ml^-1) to select for the presence of plasmid pMP_AR1 (or its mutant derivatives) and they were grown at 37°C. When the main cultures reached an OD578 of 0.5, enhanced expression of the opuAR gene from P-tet was induced by the addition of AHT to a final concentration of 0.2-μg ml^-1. Cells were grown for an additional 2 h, before they were harvested by centrifugation (at 4°C at 4,800 × g for 20 min). The cell pellets were re-suspended in lysis buffer [100 mM Tris-HCl (pH 7.5), 2.5% glycerol, 2 mM dithiothreitol, 0.4 mM EDTA, 0.5 mM phenylmethylsulfonyl fluoride (PMSF), 0.5 mM benzamidine] and the cells were then disrupted by passing them through a French pressure cell as detailed previously ([Nau-Wagner et al., 2012]). Cleared cell lysates were prepared by ultra-centrifugation (at 4°C at 100,000 × g for 35 min) before the OpuAR-Strep-tag II recombinant protein was purified by affinity chromatography ([Nau-Wagner et al., 2012]) on streptactin affinity resin according to the manufacturers specifications (IBA, Göttingen, Germany). Mutant derivatives of the OpuAR protein were overproduced and purified as described above for the wild-type protein.
(§3) The dissociation constants of OpuAR for choline and glycine betaine were determined by intrinsic tryptophan fluorescence spectroscopy as described previously using a Carry Eclips fluorescence spectrometer (Varian, Surry, United Kingdom) ([Pittelkow et al., 2011]; [Nau-Wagner et al., 2012]).

OpuAR R^100F = OpuAR R^100F (Bacillus infantis, UniProt U5LJR5, R100F); test: biochemical; assay type: binding
Sequence of OpuAR R^100F (U5LJR5 entry or part of it R100F): as the sequence (U5LJR5 entry or part of it Y94F/R100F) above
Description: as §1, §2, §3

OpuAR W^93F = OpuAR W^93F (Bacillus infantis, UniProt U5LJR5, W93F); test: biochemical; assay type: binding
Sequence of OpuAR W^93F (U5LJR5 entry or part of it W93F): as the sequence (U5LJR5 entry or part of it Y94F/R100F) above
Description: as §1, §2, §3

OpuAR N^96F = OpuAR N^96F (Bacillus infantis, UniProt U5LJR5, N96F); test: biochemical; assay type: binding
Sequence of OpuAR N^96F (U5LJR5 entry or part of it N96F): as the sequence (U5LJR5 entry or part of it Y94F/R100F) above
Description: as §1, §2, §3

OpuAR Y^94F = OpuAR Y^94F (Bacillus infantis, UniProt U5LJR5, Y94F); test: biochemical; assay type: binding
Sequence of OpuAR Y^94F (U5LJR5 entry or part of it Y94F): as the sequence (U5LJR5 entry or part of it Y94F/R100F) above
Description: as §1, §2, §3

OpuAR = OpuAR (Bacillus infantis, UniProt U5LJR5); test: Intrinsic tryptophan fluorescence ligand binding, purified OpuAR (wild type)
Sequence of OpuAR (U5LJR5 entry or part of it): as the sequence (U5LJR5 entry or part of it Y94F/R100F) above
Experimental: Overproduction of the OpuAR repressor protein and its mutant derivatives was carried out in the E. coli B strain BL21 harboring plasmid pMP_AR1, a derivative of the expression vector pASK-IBA3plus (IBA, Göttingen, Germany) (Supplementary Table S3). […] De-repression of P-tet promoter activity is achieved by adding the synthetic inducer AHT to the growth medium. Cultures of the E. coli B. strain BL21 (pMP_AR1) were inoculated (to a OD578 of 0.1) from pre-cultures prepared in MMA ([Miller, 1972]) supplemented with 0.5% glucose (wt/vol) as the carbon source, 0.5% casamino acids (wt/vol), 1 mg l^-1 thiamine, and 1 mM MgSO4. The cultures also contained ampicillin (100 μg ml^-1) to select for the presence of plasmid pMP_AR1 (or its mutant derivatives) and they were grown at 37°C. When the main cultures reached an OD578 of 0.5, enhanced expression of the opuAR gene from P-tet was induced by the addition of AHT to a final concentration of 0.2-μg ml^-1. Cells were grown for an additional 2 h, before they were harvested by centrifugation (at 4°C at 4,800 × g for 20 min). […]
as §3

B. subtilis GbsR protein = biological target: B. subtilis GbsR protein; design: method as in Nau-Wagner et al., 2012; details: purified B. subtilis GbsR, ref Nau-Wagner et al., 2012, cited from earlier work
B. infantis NRRL B-14911 = test: Growth of B. infantis with glycine betaine as sole carbon source; assay type: cell-based, Bacillus infantis; details: basal medium, 33.24 mM as sole carbon source, 46 h, 37°C
Experimental: Supplementary Figure S7 │B. infantis cannot use glycine betaine as carbon source.
Cultures of B. infantis NRRL B-14911were grown in basal medium supplemented with either glucose (27.7 mM final concentration) or glycine betaine (33.24 mM final concentration) as the sole carbon source. Growth yields were measured after 46 hours of incubation at 37 °C.
Cultures without the addition of a carbon source served as control.
(1 picture or pasted object on this page, not shown here)

[1] = system: opuAA-treA reporter activity; test: opuAA-treA reporter fusion TreA enzyme activity assay; assay type: cell-based, Bacillus subtilis; details: strain STHB10, SMM with 1.2 M NaCl, dose-response 5 to 300 μM

| Compound | Kd (OpuAR Y^94F/R^100F) | Improvement of binding (Kd) relative to wild-type OpuAR (OpuAR Y^94F/R^100F) | Kd (OpuAR R^100F) | Kd (OpuAR W^93F) | Kd (OpuAR N^96F) | Kd (OpuAR Y^94F) | Kd (OpuAR) | Kd (B. subtilis GbsR protein; intrinsic Trp-fluorescence) | Use as carbon source / nutrient (growth yield) (B. infantis NRRL B-14911) | Kd (OpuAR Y^94F/R^100F; OpuAR double variant Y94F/R100F, read-out: Kd) | Kd (OpuAR R^100F; OpuAR variant R100F, read-out: Kd) | Kd (OpuAR W^93F; OpuAR variant W93F, read-out: Kd) | Kd (OpuAR N^96F; OpuAR variant N96F, read-out: Kd) | Kd (OpuAR Y^94F; OpuAR variant Y94F, read-out: Kd) | Kd (OpuAR; purified OpuAR-Strep-tag II wild type, 5 μM protein, read-out: Kd) | Concentration in growth medium triggering a noticeable increase in transcriptional activity [1] | Concentration sufficient to fully induce expression of the reporter fusion [1] | Binding by GbsR (B. subtilis GbsR protein) |
| --- | --- | --- | --- | --- | --- | --- | --- | --- | --- | --- | --- | --- | --- | --- | --- | --- | --- | --- |
| C[N+](C)(C)CCO [choline] | 61 ± 11 µM | about threefold | 100 ± 15 µM | 210 ± 33 µM | 262 ± 34 µM | 240 ± 33 µM | 193 ± 40 µM | 165 ± 15 µM | – | – | – | – | – | – | – | – | – | – |
| C[N+](C)(C)CC(=O)[O-] [glycine betaine] | – | fourfold | – | – | – | – | – | – | cannot use | 70 ± 12 µM | 303 ± 40 µM | 224 ± 24 µM | 254 ± 39 µM | 293 ± 37 µM | 301 ± 24 µM | 5 µM | 75 µM | does not bind |
